Experimental data taken from patent US11992561B2 (priority 2020, dated 2024).

Key:
[1] = Clinical study: plasma concentrations and pharmacokinetics after (S)-ketamine OTF; settings: for Tmax: calculated using a PK model (NONMEM); for plasma level of the metabolite following administration of an OTF as compared to intravenous administration of 20 mg (S)-ketamine: FIGS. 3-8
[2] = Clinical study: safety, side effects, taste, psychedelic effects (Bowdle, Bond and Lader questionnaires)

## CNC1(c2ccccc2Cl)CCCCC1=O (stereo not shown) [ketamine]
[1]; FIGS. 9-11
  plasma levels of ketamine, intravenous administration versus administration of an OTF: higher for intravenous administration

## N[C@]1(c2ccccc2Cl)CCCCC1=O [(S)-Norketamine]
[1]; 50 mg (S)-Ketamine OTF
  Tmax: 1.02 h
[1]; 100 mg (S)-Ketamine OTF
  Tmax: 1.3 h
[1]; All data, 2 × 50 mg (S)-ketamine OTF (formulation 15)
  Cmax plasma concentration: 330 ng/mL
[1]; Buccally, 2 × 50 mg (S)-ketamine OTF, n=5
  Cmax plasma concentration: 450 ng/mL
[1]
  plasma level of the metabolite following administration of an OTF as compared to intravenous administration of 20 mg (S)-ketamine: higher

## N[C@]1(c2ccccc2Cl)CCC[C@H](O)C1=O [(S)-Hydroxynorketamine]
[1]; 50 mg (S)-Ketamine OTF
  Tmax: 1.35 h
[1]; 100 mg (S)-Ketamine OTF
  Tmax: 1.82 h
[1]; All data, 50 mg (S)-ketamine OTF (formulation 15)
  Cmax plasma concentration: 94 ng/mL
[1]; Buccally, 50 mg (S)-ketamine OTF, n=5
  Cmax plasma concentration: 81 ng/mL
[1]
  plasma level of the metabolite following administration of an OTF as compared to intravenous administration of 20 mg (S)-ketamine: higher
[1]; Sublingually, 50 mg (S)-ketamine OTF, n=15
  Cmax plasma concentration: 98 ng/mL

## CNC1(c2ccccc2Cl)CCCCC1=O (racemic) [(S)-ketamine, (S)-(±)-2-(2-chlorophenyl)-2-(methylamino)cyclohexan-1-one]
[2]; 20 mg (S)-ketamine IV
  Dizziness (number of adverse events): 4
  Drowsiness (number of adverse events): 3
  Dry eyes (number of adverse events): 1
  Headache (number of adverse events): 3
  High blood pressure (SBP > 180 mm Hg) (number of adverse events): 2
  Nausea (number of adverse events): 2
  Sweating (number of adverse events): 1
  Total (number of adverse events): 17
  Whistling noise in the ear (number of adverse events): 1
[2]; 50 mg (S)-ketamine as OTF
  Blurred vision (number of adverse events): 1
  Bradykinesia (number of adverse events): 1
  Dizziness (number of adverse events): 1
  Feeling of drunkenness (number of adverse events): 2
  Headache (number of adverse events): 1
  Nausea (number of adverse events): 1
  Total (number of adverse events): 7
[2]; 100 mg (S)-ketamine as OTF
  Bradykinesia (number of adverse events): 1
  Dizziness (number of adverse events): 3
  Headache (number of adverse events): 2
  Nausea (number of adverse events): 1
  Numbness of the tongue (number of adverse events): 2
  Total (number of adverse events): 9
